Drawing on patent US20030114445A1, “N3-substituted 6-anilinopyrimidines and methods to treat-Gram-positive bacterial and mycoplasmal infections” (priority 2001, published 2003), this text covers Ki and MIC for 17 compounds.

For one test, the target named is B.subtilis pol IIIC (Bacillus subtilis, UniProt P13267). The test is described as follows: biochemical. As to the method: DNA pol activity was assayed as described in Barnes et al., Nuc. Acids Res., 6:1203-19 (1979), using activated “nicked” calf-thymus DNA as template primer, 10 pM [^3H-methyl]-dTTP as the labelled dNTP substrate, and dATP, dCTP, and dGTP at 25 μM each.
Inhibitory activity of the compounds is determined by measuring the ability of the agent to inhibit enzyme-catalyzed incorporation of [^3H]-dTMP into nicked calf thymus DNA in the absence of the competitor dGTP or dATP (“truncated assay”) (see G. E. Wright and N. C. Brown, Inhibition of Bacillus subtilis DNA Polymerase III by Arylhydrazinopyrimidines: Novel Properties of 2-Thiouracil Derivatives, Biochim. Biophys. Acta 432:37-48 (1976)). Purified pol IIIC is added to a buffered solution containing Mg^2+, DTT, glycerol, nicked calf thymus DNA, saturating concentrations of dATP, dCTP, dTTP and [^3H]-dTTP. Reaction mixtures are incubated at 30° C. for 10 minutes, quenched and filtered, and radioactivity in the acid-insoluble material measured by scintillation counting. Experiments are done in triplicate. Inhibitors are assayed by addition of several dilutions of a stock solution of inhibitor (DMSO or water, depending on solubility) before enzyme addition. […] The truncated assay, i.e. exclusion of the competitive substrate dGTP or dATP, depending upon whether the compound is a uracil derivative or an isocytosine derivative, respectively, allows for the direct determination of apparent inhibitor constants (K,) in this assay system.

The test system of another test is B. subtilis. Briefly: Inhibition of bacterial growth on agar plates (MIC). Format: cell-based. The following applies: Bacillus subtilis, 37° C., 24 hours. As to the method:
(§1) Each compound is assayed against a panel of Bacillus, Enterococcus and Staphylococcus, and a Gram-negative bacterium Escherichia coli as negative control, grown in appropriate plate media solidified with 1.3% agar-agar. Stock solutions of the compounds in dimethylsulfoxide or water, depending on solubility, are added to sterile medium at a temperature of 60° C. […] One tenth mL of diluted bacteria containing 500-1000 colony-forming units (CFU) are plated and spread, and the plates incubated at 37° C. for 24 hours. MIC (minimum inhibitory concentration) is equivalent to the lowest concentration at which growth, i.e. colony formation, is not observed.

The next test concerns E. fecium. The description is as above. The format is cell-based. To be noted: 37° C., 24 hours. As to the method: as §1
The subject of a further test is S.aureus (Smith). Described as above. The format is cell-based. To be noted: Staphylococcus aureus, 37° C., 24 hours. As to the method:
as §1

The next test relates to E. fecalis. The test is described as above. The format is cell-based. The following applies: 37° C., 24 hours. As to the method: as §1

In brackets after ≈: the same amount, converted by molar mass. Where two headings read alike, the source gives them in different places.

Broadly, the MIC is the least concentration at which growth counts as inhibited.

Chain of B.subtilis pol IIIC (P13267 whole entry, the tested form may be a part): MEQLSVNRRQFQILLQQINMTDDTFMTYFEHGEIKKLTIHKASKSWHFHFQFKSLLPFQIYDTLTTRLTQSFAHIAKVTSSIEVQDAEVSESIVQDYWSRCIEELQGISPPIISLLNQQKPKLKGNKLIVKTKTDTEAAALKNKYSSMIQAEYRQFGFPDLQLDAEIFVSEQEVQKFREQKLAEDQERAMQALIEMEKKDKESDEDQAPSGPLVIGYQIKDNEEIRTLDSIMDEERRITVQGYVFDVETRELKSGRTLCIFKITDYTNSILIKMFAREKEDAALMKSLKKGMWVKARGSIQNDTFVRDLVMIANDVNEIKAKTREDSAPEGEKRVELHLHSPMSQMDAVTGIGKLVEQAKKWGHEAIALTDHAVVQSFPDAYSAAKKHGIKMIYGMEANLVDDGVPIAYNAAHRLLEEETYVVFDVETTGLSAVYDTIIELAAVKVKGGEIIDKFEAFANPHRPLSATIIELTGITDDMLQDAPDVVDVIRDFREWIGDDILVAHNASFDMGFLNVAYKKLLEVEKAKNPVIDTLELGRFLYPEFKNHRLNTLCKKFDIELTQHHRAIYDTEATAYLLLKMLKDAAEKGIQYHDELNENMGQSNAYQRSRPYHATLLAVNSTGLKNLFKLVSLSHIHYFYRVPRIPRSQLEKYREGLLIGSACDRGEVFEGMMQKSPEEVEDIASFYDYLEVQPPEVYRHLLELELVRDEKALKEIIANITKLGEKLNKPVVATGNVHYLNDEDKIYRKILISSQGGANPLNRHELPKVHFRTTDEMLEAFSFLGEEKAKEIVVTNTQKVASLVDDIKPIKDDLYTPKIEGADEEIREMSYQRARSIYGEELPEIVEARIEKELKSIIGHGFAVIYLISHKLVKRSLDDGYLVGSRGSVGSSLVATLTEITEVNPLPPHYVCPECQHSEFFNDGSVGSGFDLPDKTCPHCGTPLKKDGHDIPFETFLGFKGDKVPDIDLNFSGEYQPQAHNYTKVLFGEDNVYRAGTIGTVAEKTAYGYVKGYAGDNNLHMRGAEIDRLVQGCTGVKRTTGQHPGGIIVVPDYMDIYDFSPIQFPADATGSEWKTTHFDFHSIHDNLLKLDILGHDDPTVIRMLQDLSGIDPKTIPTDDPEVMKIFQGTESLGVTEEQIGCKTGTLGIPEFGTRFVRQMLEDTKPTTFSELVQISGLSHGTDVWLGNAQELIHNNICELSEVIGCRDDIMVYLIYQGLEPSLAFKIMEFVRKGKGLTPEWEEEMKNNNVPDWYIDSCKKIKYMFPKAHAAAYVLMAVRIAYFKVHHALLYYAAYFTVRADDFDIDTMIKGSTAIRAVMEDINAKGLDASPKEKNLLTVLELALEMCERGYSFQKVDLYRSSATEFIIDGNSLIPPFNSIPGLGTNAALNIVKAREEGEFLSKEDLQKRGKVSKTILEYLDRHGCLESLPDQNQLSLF

Take `CCc1cc(Nc2cc(=O)n(CCCCN3CCN(c4ccc(F)cc4)CC3)c(=O)[nH]2)ccc1C` [Compound 46, 3-{4-[(4-fluorophenyl)piperazinyl]butyl}-6-(3-ethyl-4-methyylanilino)uracil]: the Ki on B.subtilis pol IIIC (truncated assay, apparent inhibitor constant, read-out: K1 B.subtilis pol IIIC) was determined as 70 nM. Further, the minimal inhibitory concentration (MIC) against B. subtilis worked out at 5 µg/mL (≈ 10.4 µM); against E. fecium it was 5 µg/mL (≈ 10.4 µM); against S.aureus (Smith) it was 20 µg/mL (≈ 41.7 µM); in the test on E. fecalis it was 10 µg/mL (≈ 20.9 µM).
The compound `CCc1cc(Nc2cc(=O)n(CCCCOC(=O)N3CCOCC3)c(=O)[nH]2)ccc1C` [Compound 47, 3-[4-(N-morpholinocarbonyloxy)butyl]-6-(3-ethyl-4-methylanilino)uracil] gave a Ki on B.subtilis pol IIIC of 71 nM. Further, the MIC with B. subtilis was less than 1.25 µg/mL; with E. fecium it was 5 µg/mL (≈ 11.6 µM); in the test on S.aureus (Smith) it was 5 µg/mL (≈ 11.6 µM); with E. fecalis it was 5 µg/mL (≈ 11.6 µM).
For the compound `CCc1cc(Nc2cc(=O)n(CCCCNS(=O)(=O)c3cccs3)c(=O)[nH]2)ccc1C` [Compound 48, 3-[4-(2-thienylsulfonylamino)butyl]-6-(3-ethyl-4-methylanilino)uracil], the Ki at B.subtilis pol IIIC turned out to be 75 nM. For the same compound, the minimal inhibitory concentration (MIC) amounted to 2.5 µg/mL (≈ 5.4 µM) against B. subtilis, 2.5 µg/mL (≈ 5.4 µM) in the test on E. fecium, 5 µg/mL (≈ 10.8 µM) against S.aureus (Smith) and 5 µg/mL (≈ 10.8 µM) against E. fecalis.
`CCc1cc(Nc2cc(=O)n(CCCCNC(=O)C3CC3)c(=O)[nH]2)ccc1C` [Compound 49, 3-{4-[(cyclopropylcarbonyl)amino]butyl}-6-(3-ethyl-4-methylanilino)uracil]: the Ki at B.subtilis pol IIIC came out at 82 nM. Also, the minimum inhibitory concentration (MIC) against B. subtilis stood at 5 µg/mL (≈ 13 µM); in the test on E. fecium, 2.5 µg/mL (≈ 6.5 µM); with S.aureus (Smith) it was 5 µg/mL (≈ 13 µM); with E. fecalis, 5 µg/mL (≈ 13 µM).
Compound `CCc1cc(Nc2cc(=O)n(CCCCNC(=O)CCl)c(=O)[nH]2)ccc1C` [Compound 50, 3-{4-[(chloromethylcarbonyl)amino]butyl}-6-(3-ethyl-4-methylanilino)uracil] returned a Ki on B.subtilis pol IIIC of 35 nM. The MIC against B. subtilis was 2.5 µg/mL (≈ 6.36 µM); against E. fecium, 10 µg/mL (≈ 25.5 µM); in the test with S.aureus (Smith), 5 µg/mL (≈ 12.7 µM); with E. fecalis, 5 µg/mL (≈ 12.7 µM).
As for `CCc1cc(Nc2cc(=O)n(CCCCOC(=O)CCl)c(=O)[nH]2)ccc1C` [Compound 51, 3-[4-(2-chloroacetoxy)butyl]-6-(3-ethyl-4-methylanilino)uracil], the Ki at B.subtilis pol IIIC was 40 nM. The MIC was found to be 0.313 µg/mL (≈ 0.795 µM) against B. subtilis, 5 µg/mL (≈ 12.7 µM) against E. fecium, 10 µg/mL (≈ 25.4 µM) with S.aureus (Smith) and 2.5 µg/mL (≈ 6.35 µM) with E. fecalis.
`CCc1cc(Nc2cc(=O)n(CCCCN3CCN(c4nc(C)cc(C(=O)O)n4)CC3)c(=O)[nH]2)ccc1C` [Compound 60, 3-{4-[4-(6-methyl-4-carboxy-2-pyrimidinyl)-1-piperazinyl]butyl}-6-(3-ethyl-4-methylanilino)uracil] returned a Ki on B.subtilis pol IIIC of 16 nM. Besides, the MIC against B. subtilis, in the test with E. fecium, with S.aureus (Smith) and with E. fecalis was 40 µg/mL (≈ 76.7 µM) in each case.
The compound `CCc1cc(Nc2cc(=O)n(CCCCN3CCN(c4nc(C)cc(C(=O)OC)n4)CC3)c(=O)[nH]2)ccc1C` [Compound 61, 3-{4-[4-(6-methyl-4-methoxycarbonyl-2-pyrimidinyl)-1-piperazinyl]butyl}-6-(3-ethyl-4-methylanilino)uracil] came in with a Ki at B.subtilis pol IIIC of 66 nM. The minimum inhibitory concentration (MIC) worked out at 10 µg/mL (≈ 18.7 µM) with B. subtilis, 20 µg/mL (≈ 37.3 µM) against E. fecium, 40 µg/mL (≈ 74.7 µM) with S.aureus (Smith) and 20 µg/mL (≈ 37.3 µM) in the test with E. fecalis.
`CCc1cc(Nc2cc(=O)n(CCCCN3CCN(c4ncc(C(=O)OC)c(C(F)(F)F)n4)CC3)c(=O)[nH]2)ccc1C` [Compound 62, 3-{4-[4-(4-trifluoromethyl-5-methoxycarbonyl-2-pyrimidinyl)-1-piperazinyl]butyl}-6-(3-ethyl-4-methylanilino)uracil]: on B.subtilis pol IIIC, the Ki was 550 nM. The MIC with B. subtilis, with E. fecium, with S.aureus (Smith) and with E. fecalis was 80 µg/mL (≈ 136 µM) each time.
At B.subtilis pol IIIC, `CCc1cc(Nc2cc(=O)n(CCCCCNC[C@H]3CCNC3)c(=O)[nH]2)ccc1C` [Compound 63, 3(S)-{5-[(3-pyrrolidinyl)methylamino]pentyl}-6-(3-ethyl-4methylanilino)uracil] displayed a Ki of 112 nM. Further, the MIC turned out to be 20 µg/mL (≈ 48.4 µM) in the test with B. subtilis, 80 µg/mL (≈ 193 µM) in the test on E. fecium, 40 µg/mL (≈ 96.7 µM) against S.aureus (Smith) and 80 µg/mL (≈ 193 µM) against E. fecalis.
`CCc1cc(Nc2cc(=O)n(CCCCN3CCN(c4ccc(C(F)(F)F)cc4[N+](=O)[O-])CC3)c(=O)[nH]2)ccc1C` [Compound 64, 3-{4-[4-(2-nitro-4-trifluoromethylphenyl)-1-piperazinyl]butyl}-6-(3-ethyl-4-methylanilino)uracil]: on B.subtilis pol IIIC, the Ki stood at 58800 nM. In addition, the minimal inhibitory concentration (MIC) in the test with B. subtilis, with E. fecium, against S.aureus (Smith) and with E. fecalis was 80 µg/mL (≈ 139 µM) in each case.
In the case of `CCc1cc(Nc2cc(=O)n(CCCCN3CCN(c4ncc(C(=O)O)c(C(F)(F)F)n4)CC3)c(=O)[nH]2)ccc1C` [Compound 65, 3-{4-[4-(4-trifluoromethyl-5-carboxy-2-pyrimidinyl)-1-piperazinyl]butyl}-6-(3-ethyl-4-methylanilino)uracil], the Ki on B.subtilis pol IIIC worked out at 113 nM. The MIC against B. subtilis was 80 µg/mL (≈ 139 µM); in the test on E. fecium, 40 µg/mL (≈ 69.5 µM); in the test with S.aureus (Smith), 80 µg/mL (≈ 139 µM); against E. fecalis, 80 µg/mL (≈ 139 µM).
`CCc1cc(Nc2cc(=O)n(CCCCCNc3ncc(C#N)c(N)n3)c(=O)[nH]2)ccc1C` [Compound 66, 3-{5-[(4-amino-5-cyano-2-pyrimidinyl)amino]pentyl}-6-(3-ethyl-4-methylanilino)uracil] came in with a Ki on B.subtilis pol IIIC of 39500 nM. For the same compound, the MIC with B. subtilis, against E. fecium, against S.aureus (Smith) and in the test on E. fecalis was 80 µg/mL (≈ 178 µM) in each case.
Compound `CCc1cc(Nc2cc(=O)n(CCCCCn3cnc4c(=O)n(C)c(=O)n(C)c43)c(=O)[nH]2)ccc1C` [Compound 67, 3-{5-[9-(1,3-dimethyl-2,6-dioxopurinyl)]pentyl}-6-(3-ethyl-4-methylanilino)uracil] returned a Ki at B.subtilis pol IIIC of 60 nM. The minimal inhibitory concentration (MIC) in the test on B. subtilis amounted to 2.5 µg/mL (≈ 5.07 µM); in the test with E. fecium, 10 µg/mL (≈ 20.3 µM); against S.aureus (Smith) it was 10 µg/mL (≈ 20.3 µM); in the test on E. fecalis it was 20 µg/mL (≈ 40.5 µM).
The compound `CCc1cc(Nc2cc(=O)n(CCCCCN3CCc4c([nH]c5ccc(OC)cc45)C3C(=O)O)c(=O)[nH]2)ccc1C` (stereo not drawn) [Compound 68, 3-[5-(1-carboxy-6-methoxy-2,3,4,9-tetrahydro-1H-β-carboline-2-yl)pentyl]-6-(3-ethyl-4-methylanilino)uracil] had a Ki on B.subtilis pol IIIC of 288 nM. For the same compound, the MIC was 20 µg/mL (≈ 35.7 µM) against B. subtilis, 80 µg/mL (≈ 143 µM) in the test with E. fecium, 40 µg/mL (≈ 71.5 µM) in the test on S.aureus (Smith) and 80 µg/mL (≈ 143 µM) in the test with E. fecalis.
In the case of `CCc1cc(Nc2cc(=O)n(CCCCCN3CCc4c([nH]c5ccc(OC)cc45)C3)c(=O)[nH]2)ccc1C` [Compound 69], the Ki at B.subtilis pol IIIC is 109 nM. The MIC against B. subtilis came to 5 µg/mL (≈ 9.7 µM); in the test on E. fecium, 20 µg/mL (≈ 38.8 µM); in the test with S.aureus (Smith), 10 µg/mL (≈ 19.4 µM); with E. fecalis it was 20 µg/mL (≈ 38.8 µM).
Compound `CCc1cc(Nc2cc(=O)n(CCCCCNC(=O)c3cccs3)c(=O)[nH]2)ccc1C` [Compound 70, 3-[5-(2-thiophenecarboxamido)pentyl]-6-(3-ethyl-4-methylanilino)uracil] yielded a Ki at B.subtilis pol IIIC of 65 nM. For the same compound, the MIC in the test on B. subtilis amounted to 1.25 µg/mL (≈ 2.84 µM); against E. fecium, 5 µg/mL (≈ 11.3 µM); in the test with S.aureus (Smith), 10 µg/mL (≈ 22.7 µM); against E. fecalis, 5 µg/mL (≈ 11.3 µM).
